Assay results taken from publication PMC9097471, “Development of Selective Phosphatidylinositol 5-Phosphate 4-Kinase γ Inhibitors with a Non-ATP-competitive, Allosteric Binding Mode” (Journal of Medicinal Chemistry, 2022).
pIC50: −log10 of the molar value.

Assays:
PI5P4Kβ = target: T1, PI5P4Kβ (Homo sapiens, UniProt P78356); set-up: method as in ref 30 (a number printed in a supplementary file, which may have a reference list of its own: not looked up in the article's list); details: 32P-ATP/PI5P incorporation, showed 'small but significant stimulation'; cited from earlier work
T1 sequence (P78356 1-416): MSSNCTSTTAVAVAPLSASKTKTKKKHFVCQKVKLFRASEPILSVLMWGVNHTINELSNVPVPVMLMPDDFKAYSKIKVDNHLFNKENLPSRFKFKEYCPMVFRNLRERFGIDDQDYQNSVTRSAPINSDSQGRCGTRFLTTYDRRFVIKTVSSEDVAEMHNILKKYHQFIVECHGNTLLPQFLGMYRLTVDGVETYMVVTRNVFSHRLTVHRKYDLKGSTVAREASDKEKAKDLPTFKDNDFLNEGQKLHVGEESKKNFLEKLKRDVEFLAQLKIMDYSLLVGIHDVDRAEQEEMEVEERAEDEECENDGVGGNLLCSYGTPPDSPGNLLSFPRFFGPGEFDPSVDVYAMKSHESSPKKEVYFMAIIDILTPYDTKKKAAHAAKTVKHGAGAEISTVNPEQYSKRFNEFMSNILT

PKBa = PKBa (Homo sapiens, UniProt P31749); test: Kinase panel, radiometric 33P filter binding; details: read-out: % activity remaining
Description: (§1) filter binding assay using 33P-g-ATPat the MRC PPU International Centre for Kinase Profiling, University of

CHK1 = CHK1 (Homo sapiens, UniProt O14757); test: Kinase panel, radiometric 33P filter binding; details: read-out: % activity remaining
Description: as §1

SIK3 = SIK3 (Homo sapiens, UniProt Q9Y2K2); test: Kinase panel, radiometric 33P filter binding; details: read-out: % activity remaining
Description: as §1
Kinase % activity remaining s.d.

PKD1 = PKD1 (Homo sapiens, UniProt Q15139); test: Kinase panel, radiometric 33P filter binding; details: read-out: % activity remaining
Description: as §1

p38g MAPK = p38g MAPK (Homo sapiens, UniProt P53778); test: Kinase panel, radiometric 33P filter binding; details: read-out: % activity remaining
Description: as §1

TAO1 = TAO1 (Homo sapiens, UniProt Q7L7X3); test: Kinase panel, radiometric 33P filter binding; details: read-out: % activity remaining
Description: as §1

EPH-A4 = EPH-A4 (Homo sapiens, UniProt P54764); test: Kinase panel, radiometric 33P filter binding; details: read-out: % activity remaining
Description: as §1

HIPK2 = HIPK2 (Homo sapiens, UniProt Q9H2X6); test: Kinase panel, radiometric 33P filter binding; details: read-out: % activity remaining
Description: as §1

BRK = BRK (Homo sapiens, UniProt Q13882); test: Kinase panel, radiometric 33P filter binding; details: read-out: % activity remaining
Description: as §1

EF2K = EF2K (Homo sapiens, UniProt O00418); test: Kinase panel, radiometric 33P filter binding; details: read-out: % activity remaining
Description: as §1

RSK2 = RSK2 (Homo sapiens, UniProt P51812); test: Kinase panel, radiometric 33P filter binding; details: read-out: % activity remaining
Description: as §1

MLK1 = MLK1 (Homo sapiens, UniProt P80192); test: Kinase panel, radiometric 33P filter binding; details: read-out: % activity remaining
Description: as §1

IRAK4 = IRAK4 (Homo sapiens, UniProt Q9NWZ3); test: Kinase panel, radiometric 33P filter binding; details: read-out: % activity remaining
MNK2 = MNK2 (Homo sapiens, UniProt Q9HBH9); test: Kinase panel, radiometric 33P filter binding; details: read-out: % activity remaining
MARK2 = MARK2 (Homo sapiens, UniProt Q7KZI7); test: Kinase panel, radiometric 33P filter binding; details: read-out: % activity remaining
Description: as §1

Aurora B = Aurora B (Homo sapiens, UniProt Q96GD4); test: Kinase panel, radiometric 33P filter binding; details: read-out: % activity remaining
Description: as §1

PHK = PHK (Homo sapiens, UniProt Q16816); test: Kinase panel, radiometric 33P filter binding; details: read-out: % activity remaining
Description: as §1

HIPK3 = HIPK3 (Homo sapiens, UniProt Q9H422); test: Kinase panel, radiometric 33P filter binding; details: read-out: % activity remaining
Description: as §1

MAP4K5 = MAP4K5 (Homo sapiens, UniProt Q9Y4K4); test: Kinase panel, radiometric 33P filter binding; details: read-out: % activity remaining
Description: as §1

PKA = PKA (Homo sapiens, UniProt P17612); test: Kinase panel, radiometric 33P filter binding; details: read-out: % activity remaining
Description: as §1

MELK = MELK (Homo sapiens, UniProt Q14680); test: Kinase panel, radiometric 33P filter binding; details: read-out: % activity remaining
Description: as §1
Kinase % activity remaining s.d.

EPH-B2 = EPH-B2 (Homo sapiens, UniProt P29323); test: Kinase panel, radiometric 33P filter binding; details: read-out: % activity remaining
Description: as §1

MAPKAP-K3 = MAPKAP-K3 (Homo sapiens, UniProt Q16644); test: Kinase panel, radiometric 33P filter binding; details: read-out: % activity remaining
p38d MAPK = p38d MAPK (Homo sapiens, UniProt O15264); test: Kinase panel, radiometric 33P filter binding; details: read-out: % activity remaining
Description: as §1

AMPK (hum) = AMPK (hum) (Homo sapiens, UniProt Q13131); test: Kinase panel, radiometric 33P filter binding; details: read-out: % activity remaining
Description: as §1

ROCK 2 = ROCK 2 (Rattus norvegicus, UniProt Q62868); test: Kinase panel, radiometric 33P filter binding; details: read-out: % activity remaining
Description: as §1

MNK1 = MNK1 (Homo sapiens, UniProt Q9BUB5); test: Kinase panel, radiometric 33P filter binding; details: read-out: % activity remaining
CDK2-Cyclin A = CDK2-Cyclin A (Homo sapiens, UniProt P24941); test: Kinase panel, radiometric 33P filter binding; details: read-out: % activity remaining
Description: as §1

BRSK2 = BRSK2 (Homo sapiens, UniProt Q8IWQ3); test: Kinase panel, radiometric 33P filter binding; details: read-out: % activity remaining
Description: as §1
Kinase % activity remaining s.d.

MLK3 = MLK3 (Homo sapiens, UniProt Q16584); test: Kinase panel, radiometric 33P filter binding; details: read-out: % activity remaining
Description: as §1

TIE2 = TIE2 (Homo sapiens, UniProt Q02763); test: Kinase panel, radiometric 33P filter binding; details: read-out: % activity remaining

Sequence of MELK (Q14680 whole entry): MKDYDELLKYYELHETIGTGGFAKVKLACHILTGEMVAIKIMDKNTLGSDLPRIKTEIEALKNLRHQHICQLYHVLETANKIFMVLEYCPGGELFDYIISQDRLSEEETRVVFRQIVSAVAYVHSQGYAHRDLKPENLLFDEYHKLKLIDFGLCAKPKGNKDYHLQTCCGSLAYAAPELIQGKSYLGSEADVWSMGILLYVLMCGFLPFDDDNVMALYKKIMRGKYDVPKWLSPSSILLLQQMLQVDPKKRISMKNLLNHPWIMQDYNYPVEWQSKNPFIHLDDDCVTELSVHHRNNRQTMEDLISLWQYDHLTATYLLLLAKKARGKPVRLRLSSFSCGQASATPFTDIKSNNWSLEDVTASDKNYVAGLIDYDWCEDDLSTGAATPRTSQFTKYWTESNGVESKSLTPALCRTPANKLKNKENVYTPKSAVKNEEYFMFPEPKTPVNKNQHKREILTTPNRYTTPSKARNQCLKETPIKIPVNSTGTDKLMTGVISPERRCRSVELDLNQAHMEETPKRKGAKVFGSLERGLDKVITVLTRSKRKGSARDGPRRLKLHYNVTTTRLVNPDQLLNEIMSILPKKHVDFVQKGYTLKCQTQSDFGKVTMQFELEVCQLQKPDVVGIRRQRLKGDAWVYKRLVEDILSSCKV
Sequence of p38d MAPK (O15264 whole entry): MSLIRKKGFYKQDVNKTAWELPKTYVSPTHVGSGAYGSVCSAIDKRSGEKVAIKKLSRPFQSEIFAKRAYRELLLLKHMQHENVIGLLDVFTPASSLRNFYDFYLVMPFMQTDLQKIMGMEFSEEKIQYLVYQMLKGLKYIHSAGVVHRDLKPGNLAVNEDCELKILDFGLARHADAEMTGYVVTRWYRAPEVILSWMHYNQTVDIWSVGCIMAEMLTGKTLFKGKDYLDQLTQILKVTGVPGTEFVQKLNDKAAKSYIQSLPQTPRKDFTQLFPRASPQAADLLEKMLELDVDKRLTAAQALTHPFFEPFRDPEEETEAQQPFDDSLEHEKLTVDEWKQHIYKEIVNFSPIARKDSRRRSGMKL
Sequence of PKBa (P31749 whole entry): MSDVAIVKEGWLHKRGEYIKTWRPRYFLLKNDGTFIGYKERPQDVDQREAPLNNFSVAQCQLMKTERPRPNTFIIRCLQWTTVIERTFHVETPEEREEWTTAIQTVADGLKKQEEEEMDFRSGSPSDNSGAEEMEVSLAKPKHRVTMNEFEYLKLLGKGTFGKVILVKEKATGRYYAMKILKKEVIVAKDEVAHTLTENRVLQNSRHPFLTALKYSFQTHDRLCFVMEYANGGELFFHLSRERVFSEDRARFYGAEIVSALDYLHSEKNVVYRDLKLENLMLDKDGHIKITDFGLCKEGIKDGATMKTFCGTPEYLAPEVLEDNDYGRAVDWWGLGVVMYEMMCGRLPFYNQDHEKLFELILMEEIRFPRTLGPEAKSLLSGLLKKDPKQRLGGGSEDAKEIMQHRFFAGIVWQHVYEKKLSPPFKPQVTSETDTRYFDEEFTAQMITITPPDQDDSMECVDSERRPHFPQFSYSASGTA
Sequence of Aurora B (Q96GD4 whole entry): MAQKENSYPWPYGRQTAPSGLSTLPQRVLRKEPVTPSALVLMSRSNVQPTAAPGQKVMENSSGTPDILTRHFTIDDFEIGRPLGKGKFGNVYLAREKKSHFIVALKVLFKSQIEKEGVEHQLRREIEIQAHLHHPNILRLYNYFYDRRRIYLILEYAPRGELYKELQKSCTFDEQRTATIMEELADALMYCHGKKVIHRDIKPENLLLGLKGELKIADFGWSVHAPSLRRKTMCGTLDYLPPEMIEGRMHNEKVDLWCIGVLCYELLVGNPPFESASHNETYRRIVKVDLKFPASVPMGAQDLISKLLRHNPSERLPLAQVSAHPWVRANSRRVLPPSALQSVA
Sequence of MNK2 (Q9HBH9 whole entry): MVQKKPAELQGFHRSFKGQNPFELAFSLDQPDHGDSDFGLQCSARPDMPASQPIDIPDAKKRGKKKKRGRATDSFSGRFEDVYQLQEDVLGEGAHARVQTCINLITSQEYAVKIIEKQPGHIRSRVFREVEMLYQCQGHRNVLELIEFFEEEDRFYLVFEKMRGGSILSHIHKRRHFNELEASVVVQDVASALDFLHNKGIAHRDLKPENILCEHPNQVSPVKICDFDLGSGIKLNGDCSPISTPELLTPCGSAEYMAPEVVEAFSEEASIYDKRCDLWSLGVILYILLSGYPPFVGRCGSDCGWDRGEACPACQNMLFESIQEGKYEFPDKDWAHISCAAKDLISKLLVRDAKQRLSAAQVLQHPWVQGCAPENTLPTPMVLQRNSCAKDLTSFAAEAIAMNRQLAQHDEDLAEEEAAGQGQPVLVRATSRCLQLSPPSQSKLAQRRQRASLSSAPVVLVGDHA
Sequence of HIPK2 (Q9H2X6 whole entry): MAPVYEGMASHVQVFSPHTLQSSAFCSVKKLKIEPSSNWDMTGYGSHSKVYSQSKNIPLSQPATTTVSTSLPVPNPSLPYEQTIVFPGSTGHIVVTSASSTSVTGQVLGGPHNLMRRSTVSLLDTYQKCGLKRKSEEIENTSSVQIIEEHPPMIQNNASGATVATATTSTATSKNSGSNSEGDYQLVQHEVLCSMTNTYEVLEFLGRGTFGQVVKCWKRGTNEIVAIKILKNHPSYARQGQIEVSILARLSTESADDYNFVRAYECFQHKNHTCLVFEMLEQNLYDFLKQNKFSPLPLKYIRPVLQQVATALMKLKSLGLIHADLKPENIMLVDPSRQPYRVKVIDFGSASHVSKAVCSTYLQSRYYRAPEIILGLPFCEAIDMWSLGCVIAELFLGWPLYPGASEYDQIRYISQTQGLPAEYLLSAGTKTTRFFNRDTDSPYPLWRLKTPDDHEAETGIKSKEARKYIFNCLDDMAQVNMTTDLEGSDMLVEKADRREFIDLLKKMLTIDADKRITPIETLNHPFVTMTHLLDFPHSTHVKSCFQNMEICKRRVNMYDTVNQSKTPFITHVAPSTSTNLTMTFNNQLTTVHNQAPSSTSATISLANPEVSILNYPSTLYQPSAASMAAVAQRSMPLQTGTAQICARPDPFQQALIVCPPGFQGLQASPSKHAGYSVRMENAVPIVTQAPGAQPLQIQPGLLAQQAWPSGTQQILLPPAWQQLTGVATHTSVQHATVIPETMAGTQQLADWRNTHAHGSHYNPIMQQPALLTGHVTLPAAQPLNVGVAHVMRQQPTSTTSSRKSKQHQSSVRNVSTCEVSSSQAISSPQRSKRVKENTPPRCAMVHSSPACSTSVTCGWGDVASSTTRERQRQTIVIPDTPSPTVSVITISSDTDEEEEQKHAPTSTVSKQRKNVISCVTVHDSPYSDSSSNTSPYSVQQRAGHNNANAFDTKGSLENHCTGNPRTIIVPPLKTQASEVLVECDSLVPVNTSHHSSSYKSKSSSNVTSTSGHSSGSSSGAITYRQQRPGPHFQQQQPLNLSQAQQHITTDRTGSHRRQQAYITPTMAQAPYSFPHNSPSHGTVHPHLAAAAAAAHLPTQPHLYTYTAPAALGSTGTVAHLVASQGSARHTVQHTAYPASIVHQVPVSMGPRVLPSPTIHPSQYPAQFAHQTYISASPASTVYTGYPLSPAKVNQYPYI
Sequence of AMPK (hum) (Q13131 whole entry): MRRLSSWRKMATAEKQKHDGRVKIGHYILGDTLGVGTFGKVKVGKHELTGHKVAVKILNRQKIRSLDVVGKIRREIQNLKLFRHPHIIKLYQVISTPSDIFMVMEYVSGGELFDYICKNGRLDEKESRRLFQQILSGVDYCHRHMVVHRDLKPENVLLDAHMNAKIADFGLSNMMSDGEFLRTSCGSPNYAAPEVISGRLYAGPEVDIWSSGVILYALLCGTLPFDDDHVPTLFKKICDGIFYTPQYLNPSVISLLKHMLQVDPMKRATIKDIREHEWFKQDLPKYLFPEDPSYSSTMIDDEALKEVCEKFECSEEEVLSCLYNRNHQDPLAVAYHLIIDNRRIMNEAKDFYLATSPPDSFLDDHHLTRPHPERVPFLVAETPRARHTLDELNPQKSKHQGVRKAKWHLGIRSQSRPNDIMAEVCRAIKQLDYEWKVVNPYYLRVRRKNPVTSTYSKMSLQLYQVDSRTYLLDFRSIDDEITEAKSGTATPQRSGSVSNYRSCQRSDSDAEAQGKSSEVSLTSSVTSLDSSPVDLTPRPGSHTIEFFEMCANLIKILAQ
Sequence of AMPK (hum) (O43741 whole entry partner): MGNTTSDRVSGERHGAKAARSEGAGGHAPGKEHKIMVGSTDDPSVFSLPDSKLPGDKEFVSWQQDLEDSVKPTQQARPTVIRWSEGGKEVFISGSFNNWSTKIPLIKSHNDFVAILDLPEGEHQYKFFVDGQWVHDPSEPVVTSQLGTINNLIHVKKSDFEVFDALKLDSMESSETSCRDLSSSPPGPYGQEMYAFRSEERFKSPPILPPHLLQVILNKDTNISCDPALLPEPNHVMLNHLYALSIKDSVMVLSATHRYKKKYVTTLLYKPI
Sequence of AMPK (hum) (P54619 whole entry partner): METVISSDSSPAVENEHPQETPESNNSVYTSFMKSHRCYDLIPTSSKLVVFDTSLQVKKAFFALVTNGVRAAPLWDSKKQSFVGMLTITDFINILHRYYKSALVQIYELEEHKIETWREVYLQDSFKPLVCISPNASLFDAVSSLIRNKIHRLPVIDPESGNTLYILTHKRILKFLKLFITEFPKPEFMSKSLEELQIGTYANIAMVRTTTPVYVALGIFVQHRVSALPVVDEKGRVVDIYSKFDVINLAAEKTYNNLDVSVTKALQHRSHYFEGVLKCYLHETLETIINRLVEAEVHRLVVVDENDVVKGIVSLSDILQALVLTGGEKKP

FC(F)(F)c1ccccc1-c1nc(NCc2cccs2)c2ccccc2n1 [Compound 1, NIH-12848, reference compound]
pIC50 (PI5P4Kβ): < 4.00

CC(C)c1ccccc1-c1nc(NCc2ccccn2)c2c(ccn2C)n1 [Compound 40]
remaining activity at 10 µM (PKBa): 103%
remaining activity at 10 µM (CHK1): 96%
remaining activity at 10 µM (SIK3): 111%
remaining activity at 10 µM (PKD1): 109%
remaining activity at 10 µM (p38g MAPK): 105%
remaining activity at 10 µM (TAO1): 115%
remaining activity at 10 µM (EPH-A4): 96%
remaining activity at 10 µM (HIPK2): 114%
remaining activity at 10 µM (BRK): 112%
remaining activity at 10 µM (EF2K): 98%
remaining activity at 10 µM (RSK2): 106%
remaining activity at 10 µM (MLK1): 89%
remaining activity at 10 µM (IRAK4): 114%
remaining activity at 10 µM (MNK2): 117%
remaining activity at 10 µM (MARK2): 101%
remaining activity at 10 µM (Aurora B): 113%
remaining activity at 10 µM (PHK): 107%
remaining activity at 10 µM (HIPK3): 92%
remaining activity at 10 µM (MAP4K5): 112%
remaining activity at 10 µM (PKA): 109%
remaining activity at 10 µM (MELK): 95%
remaining activity at 10 µM (EPH-B2): 78%
remaining activity at 10 µM (MAPKAP-K3): 102%
remaining activity at 10 µM (p38d MAPK): 117%
remaining activity at 10 µM (AMPK (hum)): 88%
remaining activity at 10 µM (ROCK 2): 97%
remaining activity at 10 µM (MNK1): 104%
remaining activity at 10 µM (CDK2-Cyclin A): 103%
remaining activity at 10 µM (BRSK2): 83%
remaining activity at 10 µM (MLK3): 90%
remaining activity at 10 µM (TIE2): 89%
